Assay results from ChEMBL document CHEMBL5465560, “Selectivity Literature for EUbOPEN Chemogenomic Library” (2024).

Key:
[1] = molecular target: Cyclin-dependent kinase 7 (Homo sapiens, UniProt P50613); test: Selectivity interaction (KinomeScan (DiscoverX)) EUB0000595a CDK7; settings: at 10 µM
[2] = molecular target: Serine/threonine-protein kinase 32C (Homo sapiens) (UniProt Q86UX6); test: Selectivity interaction (KinomeScan (DiscoverX)) EUB0000666a STK32C; settings: at 10 µM
Aurora kinase B = Aurora kinase B (Homo sapiens, UniProt Q96GD4); test: Selectivity interaction (Kinase panel (Enzyme activity assay)) EUB0000612a AURKB
[3] = molecular target: T1, Ankyrin repeat and protein kinase domain-containing protein 1 (Homo sapiens) (UniProt Q8NFD2); test: Selectivity interaction (Ambit KINOMEscan and KiNATiv profiling in Jurkat cells) EUB0000090b ANKK1; type: cell-based; settings: at 1 µM
T1 sequence (whole entry): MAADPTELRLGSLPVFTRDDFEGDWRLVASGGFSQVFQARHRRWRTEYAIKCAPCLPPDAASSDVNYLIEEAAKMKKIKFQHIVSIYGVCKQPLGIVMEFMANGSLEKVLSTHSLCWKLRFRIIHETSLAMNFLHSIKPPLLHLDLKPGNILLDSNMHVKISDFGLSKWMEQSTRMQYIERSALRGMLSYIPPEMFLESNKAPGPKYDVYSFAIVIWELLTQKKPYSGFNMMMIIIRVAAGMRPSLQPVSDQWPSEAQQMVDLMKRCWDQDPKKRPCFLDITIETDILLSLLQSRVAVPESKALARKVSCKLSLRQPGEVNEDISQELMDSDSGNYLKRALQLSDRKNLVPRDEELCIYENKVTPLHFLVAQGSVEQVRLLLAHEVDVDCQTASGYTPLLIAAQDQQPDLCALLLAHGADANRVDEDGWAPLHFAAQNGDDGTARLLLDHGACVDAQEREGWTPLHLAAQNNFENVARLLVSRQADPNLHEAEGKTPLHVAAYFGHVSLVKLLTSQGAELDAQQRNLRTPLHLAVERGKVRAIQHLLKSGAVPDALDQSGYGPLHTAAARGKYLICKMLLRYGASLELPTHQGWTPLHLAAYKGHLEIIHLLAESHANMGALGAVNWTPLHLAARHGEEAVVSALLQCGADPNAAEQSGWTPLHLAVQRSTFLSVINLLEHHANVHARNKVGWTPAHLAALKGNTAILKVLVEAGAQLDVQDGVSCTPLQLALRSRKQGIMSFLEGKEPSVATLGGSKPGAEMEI

[4] = molecular target: T2, Mitogen-activated protein kinase kinase kinase 15 (Homo sapiens) (UniProt Q6ZN16); test: Selectivity interaction (Ambit KINOMEscan and KiNATiv profiling in Jurkat cells) EUB0000090b MAP3K15; type: cell-based; settings: at 1 µM
T2 sequence (whole entry): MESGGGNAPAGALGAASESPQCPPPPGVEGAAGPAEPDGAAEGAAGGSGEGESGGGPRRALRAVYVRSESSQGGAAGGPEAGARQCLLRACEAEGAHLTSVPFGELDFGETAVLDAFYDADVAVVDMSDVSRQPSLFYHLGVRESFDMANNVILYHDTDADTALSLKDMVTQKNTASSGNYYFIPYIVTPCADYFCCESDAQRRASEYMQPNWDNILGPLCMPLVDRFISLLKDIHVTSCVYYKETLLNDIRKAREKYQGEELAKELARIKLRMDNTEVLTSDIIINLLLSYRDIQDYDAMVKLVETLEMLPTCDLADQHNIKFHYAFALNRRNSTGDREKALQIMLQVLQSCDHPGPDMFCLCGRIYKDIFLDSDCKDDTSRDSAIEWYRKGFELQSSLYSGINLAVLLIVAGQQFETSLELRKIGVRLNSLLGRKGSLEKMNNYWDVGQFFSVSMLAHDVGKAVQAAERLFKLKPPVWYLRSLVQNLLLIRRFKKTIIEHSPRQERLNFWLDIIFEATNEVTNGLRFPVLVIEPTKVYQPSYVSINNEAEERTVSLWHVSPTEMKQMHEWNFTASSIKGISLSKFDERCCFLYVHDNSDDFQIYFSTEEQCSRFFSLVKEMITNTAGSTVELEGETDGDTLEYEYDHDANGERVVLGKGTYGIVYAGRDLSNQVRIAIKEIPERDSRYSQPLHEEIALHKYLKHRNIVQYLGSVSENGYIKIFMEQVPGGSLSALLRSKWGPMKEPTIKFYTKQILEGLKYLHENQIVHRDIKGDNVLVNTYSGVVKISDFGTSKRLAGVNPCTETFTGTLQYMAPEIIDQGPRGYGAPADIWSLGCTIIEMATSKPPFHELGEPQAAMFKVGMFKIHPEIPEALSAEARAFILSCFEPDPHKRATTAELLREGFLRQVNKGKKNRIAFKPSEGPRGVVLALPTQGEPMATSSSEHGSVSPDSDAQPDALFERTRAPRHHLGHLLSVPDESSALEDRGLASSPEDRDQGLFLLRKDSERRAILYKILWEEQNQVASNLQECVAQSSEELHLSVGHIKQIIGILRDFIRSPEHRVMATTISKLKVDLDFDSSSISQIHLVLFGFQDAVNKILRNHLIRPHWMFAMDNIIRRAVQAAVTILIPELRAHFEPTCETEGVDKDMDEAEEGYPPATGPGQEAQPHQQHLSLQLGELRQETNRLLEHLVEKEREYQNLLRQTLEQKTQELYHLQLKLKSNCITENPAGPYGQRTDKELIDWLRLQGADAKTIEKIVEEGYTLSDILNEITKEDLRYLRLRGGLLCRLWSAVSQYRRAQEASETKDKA

Aurora kinase B, sequence (Q96GD4 whole entry, the tested form may be a part): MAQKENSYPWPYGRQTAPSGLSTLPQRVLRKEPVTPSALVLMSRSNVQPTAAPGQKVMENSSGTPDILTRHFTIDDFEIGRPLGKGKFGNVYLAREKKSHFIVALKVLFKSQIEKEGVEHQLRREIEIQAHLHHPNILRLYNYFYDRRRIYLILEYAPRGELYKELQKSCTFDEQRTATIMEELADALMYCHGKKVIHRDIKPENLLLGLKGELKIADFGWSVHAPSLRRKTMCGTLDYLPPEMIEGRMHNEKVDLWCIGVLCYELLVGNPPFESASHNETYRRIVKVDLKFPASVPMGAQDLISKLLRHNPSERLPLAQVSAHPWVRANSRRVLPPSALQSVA
Serine/threonine-protein kinase 32C (Homo sapiens), sequence (Q86UX6 whole entry): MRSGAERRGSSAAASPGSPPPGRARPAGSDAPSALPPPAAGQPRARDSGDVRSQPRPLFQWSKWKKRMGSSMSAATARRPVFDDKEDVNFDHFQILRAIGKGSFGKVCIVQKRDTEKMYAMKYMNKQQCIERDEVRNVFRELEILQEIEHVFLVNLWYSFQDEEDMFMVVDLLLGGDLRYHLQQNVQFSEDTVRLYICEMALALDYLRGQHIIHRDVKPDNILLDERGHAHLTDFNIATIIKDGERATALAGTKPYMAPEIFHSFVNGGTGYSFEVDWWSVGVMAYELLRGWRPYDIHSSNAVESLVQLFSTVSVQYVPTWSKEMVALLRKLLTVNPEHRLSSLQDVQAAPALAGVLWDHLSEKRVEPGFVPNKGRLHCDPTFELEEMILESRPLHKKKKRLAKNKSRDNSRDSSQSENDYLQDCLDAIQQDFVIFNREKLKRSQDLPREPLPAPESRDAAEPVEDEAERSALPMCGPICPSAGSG
Cyclin-dependent kinase 7, sequence (P50613 whole entry): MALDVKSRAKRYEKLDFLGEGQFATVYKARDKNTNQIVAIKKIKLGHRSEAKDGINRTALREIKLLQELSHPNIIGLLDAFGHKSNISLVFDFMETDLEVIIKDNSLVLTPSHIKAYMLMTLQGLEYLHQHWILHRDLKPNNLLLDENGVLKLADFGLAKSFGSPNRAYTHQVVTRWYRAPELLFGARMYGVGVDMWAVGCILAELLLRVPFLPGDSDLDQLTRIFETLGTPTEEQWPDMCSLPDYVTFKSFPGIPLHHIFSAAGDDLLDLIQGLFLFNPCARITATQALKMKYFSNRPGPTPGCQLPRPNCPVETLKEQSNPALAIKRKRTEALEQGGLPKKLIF

COCC(=O)NC/C=C/c1ccc2ncnc(Nc3ccc(Oc4ccc(C)nc4)c(C)c3)c2c1 [CP-724714]
% of control [1]: 100%

O=C(NOC[C@H](O)CO)c1ccc(F)c(F)c1Nc1ccc(I)cc1F
% of control [2]: 100%

CCc1cccc(CC)c1NC(=O)c1nn(C)c2c1CCc1cnc(Nc3ccc(C(=O)NC4CCN(C)CC4)cc3OC(F)(F)F)nc1-2
IC50 (Aurora kinase B): > 10 µM

CN(C)C/C=C/C(=O)Nc1ccc(C(=O)N2CCCC(Nc3ncc(Cl)c(-c4c[nH]c5ccccc45)n3)C2)cc1 (stereo not given)
% of control [3]: 91%
% of control [4]: 73%
